Legend:
[1] = system: platelet aggregation induced with a platelet activating factor; assay: Maximum platelet aggregation rate of rabbits, induced with PAF; assay type: cell-based; details: rabbit plasma, 4 mg/kg as printed; for inhibition at 4 mg/kg: Oryctolagus cuniculus, Platelet, n=3, read-out: Inhibiton rate on Aggregation; for Maximum Aggregation Rate: n=3
Experimental: Effects on maximum platelet aggregation rate of rabbits: 3 Rabbits were anesthetized, and blood was collected from the heart to obtain 14 parts of plasma for each rabbit (1 ml per part of plasma). 7 Parts were induced with ADP to allow platelet aggregation, and 7 parts were induced with a platelet activating factor. After the induction, a solvent, positive control drug aspirin, and 5 samples to be trialed were separately added to the plasma, and maximum platelet aggregation rate was detected with a platelet aggregation meter. The trials were repeated 3 times, and an average was taken. Detected indicator: maximum platelet aggregation rate.
Table 4 lists results of effects of phenylpropionate compounds (4 mg/kg) on platelet aggregation rate of rabbits (n=3).

[2] = system: rats with acute cerebral ischemia-reperfusion; assay: Cerebral infarction area of rats with acute cerebral ischemia-reperfusion (MCAO, suture method); assay type: in vivo, SD rats; parameters: Cerebral Infarction Area: unit not given here; details: n=5; for Cerebral Infarction Area: 4 mg/kg iv 2 h after reperfusion (2 h MCAO), sampled 4 h after administration; for inhibition in vivo at 4 mg/kg: Rattus norvegicus, 4 h, 4 mg/kg iv 2 h after reperfusion, vs solvent control, read-out: Percentage of Cerebral Infarction Area Reduction
Experimental: (§1) Trial method: Effects on inflammatory factors and blood viscosity of rats with acute cerebral ischemia-reperfusion: 70 Male SD rats underwent an MACO surgery by a suture method, and after the surgery, alive rats were randomly grouped (into 7 groups, the number of successful animals in each group was guaranteed to be 6 to 8). Blood perfusion was recovered 2 h after MCAO, and corresponding trial medicaments were intravenously injected 2 h after blood reperfusion. 4 hours after the administration, blood was collected and the rats were sacrificed to take out brain tissues. The brain tissues and part of the blood were centrifuged to collect serum which was detected for inflammatory factors, and part of the blood was detected for blood viscosity by using a blood viscometer. Detected indicators: cerebral infarction area; inflammatory factors IL-1β and TNF-α; and blood viscosity.
Table 1 lists results of effects of phenylpropionate compounds (4 mg/kg) on cerebral infarction area of rats with acute cerebral ischemia (n=5).

[3] = system: IL-1β; assay: Inflammatory factor IL-1β in blood and brain tissues of rats with acute cerebral ischemia-reperfusion; assay type: in vivo, SD rats; details: 4 mg/kg iv 2 h after reperfusion; 4 h after administration; n=5
Experimental: as §1
Table 3 lists results of effects of phenylpropionate compounds (4 mg/kg) on inflammatory factors in blood and brain tissues of rats (n=5).

[4] = system: SD rats; assay: Acute toxicity, single-dose intravenous injection in SD rats; assay type: in vivo; details: for tolerance: single-dose intravenous injection (5, 10, 20 mg/kg); for toxic side effects: single-dose intravenous injection up to 20 mg/kg, observed to day 8
Description: In this example, Compound A and Compound C were studied for acute toxicity by a method described below.
Trial method: 30 SD rats, half male and half female, were used. The average weight was 160-200 g for female rats and 180-220 g for male rats when grouped. An individual weight should be within ±20% of the average weight. Before trial, animals were accommodated environment for at least 5 days, and healthy rats (female rats should be not pregnant) were selected as trial animals. Matter inspected during the accommodation period mainly was: whether the rats were consistent with quality indicators required in the order; inspection of general condition; and whether the weight was within the weight range required by the trial. Unqualified abnormal animals were excluded from the trial. A single dosage was injected through tail veins of rats at low, medium, or high dose. The doses were adjusted to be 5 mg/kg, 10 mg/kg, and 20 mg/kg, respectively according to blank preparation pre-trials. A control group was set in which a same volume of vehicle was intravenously injected.
The rats were observed about 0-2 h and 4-6 h after each administration. If a toxicity symptom occurs, the animal may be observed more times. (2) Gross anatomical observation: On the 8th day of the trial, all surviving rats in each group were dissected and observed, and administration sites and abnormal organs and tissues which were identified through gross anatomical observation to be potentially related to trial samples were photographed and recorded. (3) Disposal of dying animals: Status of rats and observation time were recorded, and their weights were measured. (4) Disposal of dead animals: The time of death or when a rat was found dead were recorded. The rat was measured for weight before quickly dissected for gross observation and speculated for cause of death.

Structure (SMILES)	inhibition at 4 mg/kg [1] [%]	Maximum Aggregation Rate [1] [%]	Cerebral Infarction Area [2]	inhibition in vivo at 4 mg/kg [2] [%]	IL-1β [3] [ng/L]	tolerance [4] [mg/kg]	toxic side effects [4]
COc1cc(CCC(=O)O[C@H]2C[C@H]3CC[C@]2(C)C3(C)C)cc(F)c1O [Compound A]	60.2	28.4 ± 6.4	18.6 ± 2.65	49.3	53.8 ± 6.4	20	no obvious toxic side effects
COc1cc(CCC(=O)O[C@H]2C[C@H]3CC[C@]2(C)C3(C)C)cc(OC)c1O [Compound C]	52.9	33.6 ± 7.9	19.6 ± 5.38	46.6	59.3 ± 8.7	20	no obvious toxic side effects

— patent publication US11767286B2, “Phenylpropionate compound, preparation method for same, and applications thereof” (SUZHOU PHARMAVAN CO., LTD, priority 2017, dated 2023)
